# Results reported in US20090291048A1, “LEUKOCYTE-BINDING POLYPEPTIDES AND USES THEREOF” (Baker IDI Heart and Diabetes Institute Holdings Limited, priority 2005, published 2009).
# Tested on: GPIIb/IIIa (αIIbβ3, CD41/CD61), native or GFFKR-deleted, on CHO cells
# Assay: Flow cytometry cross-reactivity with GPIIb/IIIa-expressing CHO cells
# Format: binding
# Conditions: CHO cells with native (non-activated) or GFFKR-deleted (activated) GPIIb/IIIa
# Description: Cross-reactivity with another fibrinogen binding integrin was assessed in flow cytometry using CHO cells expressing either a GFFKR-deleted and thereby activated GPIIb/IIIa or the native and thereby non-activated platelet integrin GPIIb/IIIa (details of cell generation have been described previously).^30,31 The expression of the activated conformation was determined by the binding of the activation-specific antibody Pac-1. MAN-1 binding was measured by an Alexa Fluor 488-conjugated anti-His-tag secondary antibody. […] Thus, no cross-reactivity to GPIIb/IIIa was seen. A typical result out of three experiments is shown.
# Since one of the Mac-1 ligands, fibrinogen, also binds to the platelet integrin GPIIb/IIIa (αIIIbβ3, CD41/CD61) potential cross-reactivity of MAN-1 with this integrin was also evaluated. For this purpose, recombinant CHO cell lines were used, expressing native, non-activated and GFFKR-deleted, activated GPIIb/IIIa as described elsewhere (O'Toole et al J. Cell Biol. 1994; 124:1047-1059; Peter et al, J Exp Med. 1995; 181:315-326; Tadokoro et al Science. 2003; 302:103-106).
# GPIIb/IIIa (αIIbβ3, CD41/CD61), native or GFFKR-deleted, on CHO cells, sequence (P08514 32-887 limits assumed, stated change not applied): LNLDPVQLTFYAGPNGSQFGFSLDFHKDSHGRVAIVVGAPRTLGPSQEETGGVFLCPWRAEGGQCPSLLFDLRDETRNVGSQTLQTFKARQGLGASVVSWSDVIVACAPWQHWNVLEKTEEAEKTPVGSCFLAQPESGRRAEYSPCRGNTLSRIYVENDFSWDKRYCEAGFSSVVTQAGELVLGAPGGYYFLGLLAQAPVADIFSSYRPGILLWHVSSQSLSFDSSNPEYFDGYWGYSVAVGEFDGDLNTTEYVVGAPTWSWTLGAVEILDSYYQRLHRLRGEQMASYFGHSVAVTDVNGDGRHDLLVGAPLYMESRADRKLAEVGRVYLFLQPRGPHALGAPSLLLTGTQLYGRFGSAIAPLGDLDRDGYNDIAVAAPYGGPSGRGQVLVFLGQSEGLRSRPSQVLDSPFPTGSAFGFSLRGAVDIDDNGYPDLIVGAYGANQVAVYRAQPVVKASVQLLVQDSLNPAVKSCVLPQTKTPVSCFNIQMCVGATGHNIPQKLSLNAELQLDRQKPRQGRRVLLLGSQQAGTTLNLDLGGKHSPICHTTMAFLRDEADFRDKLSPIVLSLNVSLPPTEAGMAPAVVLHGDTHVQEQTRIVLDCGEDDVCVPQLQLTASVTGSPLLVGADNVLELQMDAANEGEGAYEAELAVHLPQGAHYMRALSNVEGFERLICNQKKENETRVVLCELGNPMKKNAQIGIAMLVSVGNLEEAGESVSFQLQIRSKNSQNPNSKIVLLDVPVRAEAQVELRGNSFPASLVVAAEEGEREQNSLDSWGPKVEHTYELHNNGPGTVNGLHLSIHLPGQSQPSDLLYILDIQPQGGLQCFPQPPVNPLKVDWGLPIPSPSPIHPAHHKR
# GPIIb/IIIa (αIIbβ3, CD41/CD61), native or GFFKR-deleted, on CHO cells, sequence (P08514 891-1019 limits assumed, stated change not applied): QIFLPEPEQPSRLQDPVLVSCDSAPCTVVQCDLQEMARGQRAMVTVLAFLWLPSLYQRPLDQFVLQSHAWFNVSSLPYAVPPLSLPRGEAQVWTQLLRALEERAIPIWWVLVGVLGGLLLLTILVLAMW
# GPIIb/IIIa (αIIbβ3, CD41/CD61), native or GFFKR-deleted, on CHO cells, sequence (P05106 27-788, stated change not applied, further chain): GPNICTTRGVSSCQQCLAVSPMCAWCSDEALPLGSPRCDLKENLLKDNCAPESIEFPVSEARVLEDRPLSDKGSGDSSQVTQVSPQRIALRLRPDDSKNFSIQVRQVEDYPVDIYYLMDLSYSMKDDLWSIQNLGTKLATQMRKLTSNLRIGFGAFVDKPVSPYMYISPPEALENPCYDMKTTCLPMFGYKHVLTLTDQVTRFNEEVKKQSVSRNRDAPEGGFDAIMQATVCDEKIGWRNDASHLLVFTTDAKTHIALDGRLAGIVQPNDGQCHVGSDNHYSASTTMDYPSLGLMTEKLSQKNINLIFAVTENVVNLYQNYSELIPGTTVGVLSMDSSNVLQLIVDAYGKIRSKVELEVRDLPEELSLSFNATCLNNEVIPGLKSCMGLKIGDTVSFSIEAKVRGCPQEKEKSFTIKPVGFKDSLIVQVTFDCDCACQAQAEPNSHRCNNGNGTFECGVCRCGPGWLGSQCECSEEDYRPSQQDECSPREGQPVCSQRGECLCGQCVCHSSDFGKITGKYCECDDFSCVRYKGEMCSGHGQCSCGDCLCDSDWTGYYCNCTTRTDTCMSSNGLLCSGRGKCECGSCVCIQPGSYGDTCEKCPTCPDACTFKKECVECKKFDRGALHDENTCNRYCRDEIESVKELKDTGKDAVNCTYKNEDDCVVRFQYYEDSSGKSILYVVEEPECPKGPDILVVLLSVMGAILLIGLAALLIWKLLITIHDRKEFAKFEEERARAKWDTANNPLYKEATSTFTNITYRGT
substance,measurement,value
Pac-1,Binding to GPIIb/IIIa,binds to the activated GPIIb/IIIa
